Experimental data reported in patent US11498900B2, “Salts of an LSD1 inhibitor” (Incyte Corporation, priority 2015, dated 2022).
Each block holds one compound with its values, some of them ahead of it.

Tests used:
Type in all cases: physicochemical
[1] = Dynamic vapor sorption (DVS) analysis; conditions: 25° C.; for Hygroscopicity (DVS adsorption/desorption isotherm): bis(4-methylbenzenesulfonate)
Method: (§1) Form I was characterized by DVS. The DVS analysis was performed on a TA Instruments Vapor Sorption Analyzer, model VTI-SA^+. The sample was pre-dried on VTI at 50° C. with 0% RH N2 for 1 h. Then the moisture uptake profile was completed in one cycle in 5% RH increments with adsorption from 0% RH to 95% RH followed by desorption in 5% increments from 95% to 5% RH. The equilibration criteria were 0.0050 wt % in 5 minutes with a maximum equilibration time of 180 minutes. All adsorption and desorption were performed at 25° C.
as §1, with “Form HI” for “Form I”, “The” for “The sample was pre-dried on VTI at 50° C. with 0% RH N2 for 1 h. Then the”, “from 35%” for “from 0%”, “were 0.0010” for “were 0.0050”, “C. No pre-drying step was applied for the sample.” for “C.”
Form DH was characterized by DVS. The DVS analysis was performed on a TA Instruments Vapor Sorption Analyzer, model VTI-SA^+. Form DH was generated by pre-drying Form HI on VTI at 40° C. with 0% RH N2 for 3 h. Then the moisture uptake profile was completed in one cycle in 5% RH increments with adsorption from 0% RH to 95% RH followed by desorption in 5% increments from 95% to […]. The equilibration criteria were 0.0010 wt % in 5 minutes with a maximum equilibration time of 180 minutes. All adsorption and desorption were performed at 25° C.

[2] = Solid form conversion on storage or exposure to humidity
Method: Form HI of Compound I di-tosylate salt was prepared during the process of drying a wet sample of Compound I di-tosylate salt, Form I, under ambient conditions. […] Form HI can also be generated by purging humidified air (e.g., 60-85% RH) through Form I solid.
Form HIII was prepared by drying Form HI on Vapor Sorption Analyzer (TA Instruments VTI-SA^+) at 40° C. with 0% RH N2 for 3 h and then exposing it to humidity at about 30-50% RH at 25° C. for 1 day.
Form DH was prepared by drying Form HI on Vapor Sorption Analyzer (TA Instruments VTI-SA*) at 25° C. with 0% RH N2 for 2 days.

[3] = Thermogravimetric analysis (TGA), decomposition; conditions: ramp 20° C. to 600° C. at 20° C./min, nitrogen
Method: Form I was characterized by TGA. The TGA was obtained using a TA Instrument Thermogravimetric Analyzer, Model Q500. The general experimental conditions for TGA were: ramp from 20° C. to 600° C. at 20° C./min; nitrogen purge, gas flow at 40 mL/min followed by balance of the purge flow; sample purge flow at 60 mL/min; platinum sample pan. A weight loss of about 3.5% up to 150° C. was observed and believed to be associated with the loss of moisture and residual solvents.

[4] = Competitive slurry experiment, relative stability of polymorph forms; conditions: in butanone and butanone/heptane (1:1)
Method: In order to evaluate the relative stability relationship of the various Compound I di-tosylate polymorph forms, a competitive slurry experiment with a mixture of Form I, II, III and IIIa through Form XII was conducted in butanone-heptane at 50° C. according to Procedure 1 below and in butanone at 25° C. according to Procedure 2 below. The mixture of thirteen polymorphs was converted to Form I after stirring in butanone/heptane (1:1) at 50° C. for 6-18 hours and after stirring in butanone at 25° C. for 6-18 hours.
Procedure 1 competitive experiment in butanone-heptane at 50° C.:
Procedure 2 competitive experiment in butanone at 25° C.: […]

[5] = Concentration of saturated solution in ethanol
Method: In one experiment, Form IIIa was prepared by adding 0.4 mL of saturated solution of Form I in ethanol (60 mg/mL) to 3.0 mL of IPAc. The resulting solid was filtered. Form IIIa was also prepared according to the procedure set forth in Example 13 using EtOH/IPAc as a solvent pair.
In one experiment, Form X was prepared by adding 0.3 mL of saturated solution of Form I in ethanol (60 mg/mL) to 2.5 mL of heptane. The resulting solid was filtered. Form X was also prepared according to the procedure set forth in Example 13 using EtOH/heptane as a solvent pair.

[6] = Physical stability of Form HI under different humidity conditions
Method: Physical stability of Form HI was studied under different humidity conditions. The humidity was controlled at 25° C. using Vapor Sorption Analyzer (TA Instruments, Model VTI-SA*). Approximately 20 mg of Form HI in the sample holder was placed inside the humidity chamber of the instrument and held under constant humidity. A sample in an open glass vial was also set up under ambient conditions. After a certain period of time, the sample was removed and characterized by XRPD, DSC, and TGA. Weight loss by TGA was mostly associated with loss of water. The experimental parameters of XRPD, DSC, and TGA are analogous to those in Example 6 for Form HI.
Form HI was stable for 10 days under humidity conditions of 10-85% RH and was stable for 60 days under ambient conditions. […] The table below provides the data for the physical stability of Form HI at 25° C. (open vial).

[7] = high humidity about 60-85% RH, bis(4-methylbenzenesulfonate)
[8] = 0% RH, 2 days, 25° C., open vial
[9] = 5% RH, 7 days, 25° C., open vial
[10] = 10% RH, 10 days, 25° C., open vial
[11] = 30% RH, 5 days, 25° C., open vial
[12] = 75% RH, 10 days, 25° C., open vial
[13] = 85% RH, 10 days, 25° C., open vial
[14] = 90% RH, 4 days, 25° C., open vial

Hygroscopicity (DVS adsorption/desorption isotherm) [1]: hygroscopic
Solid form collected after DVS ([1]; after DVS at 85% RH): Form HI
Solid form change on exposure to humidity ([2]; about 30-50% RH): change to Form HIII
Solid form change on exposure to humidity [2, 7]: Form HI
Structure (SMILES): COCC1(CN[C@@H]2C[C@H]2c2ccccc2)CCN(CC2(C(=O)O)CCC2)CC1 [Form DH, 1-{[4-(methoxymethyl)-4-({[(1R,2S)-2-phenylcyclopropyl]amino}methyl)piperidin-1-yl]methyl}cyclobutanecarboxylic acid bis(4-methylbenzenesulfonate)]

Solid form change on exposure to humidity [2, 7]: change to Form HI
Structure (SMILES): COCC1(CN[C@@H]2C[C@H]2c2ccccc2)CCN(CC2(C(=O)O)CCC2)CC1 [Form HIII, 1-{[4-(methoxymethyl)-4-({[(1R,2S)-2-phenylcyclopropyl]amino}methyl)piperidin-1-yl]methyl}cyclobutanecarboxylic acid bis(4-methylbenzenesulfonate)]

Hygroscopicity (DVS adsorption/desorption isotherm) [1]: hygroscopic
Solid form change ([2]; drying of wet sample under ambient conditions, atmospheric moisture): changed to crystalline Form HI
Solid form change on storage ([2]; storage 25° C./60% RH): converted to Form HI
Solid form change on storage ([2]; storage 40° C./75% RH): converted to Form HI
Temperature after which significant decomposition starts (TGA) [3]: > 200 °C
Relative stability of polymorphic forms [4]: most stable polymorphic form
Concentration of saturated solution [5]: 60000 µg/mL
Structure (SMILES): COCC1(CN[C@@H]2C[C@H]2c2ccccc2)CCN(CC2(C(=O)O)CCC2)CC1 [Form I, 1-{[4-(methoxymethyl)-4-({[(1R,2S)-2-phenylcyclopropyl]amino}methyl)piperidin-1-yl]methyl}cyclobutanecarboxylic acid bis(4-methylbenzenesulfonate)]

Hygroscopicity (DVS adsorption/desorption isotherm) [1]: slightly hygroscopic
% Wt Loss by TGA (25-120° C.) [6, 8]: 2.30%
DSC (° C.) (Peak Temperature) [6, 8]: 97.5 °C
XRPD (solid form) [6, 8]: Form DH
% Wt Loss by TGA (25-120° C.) [6, 9]: 2.93%
DSC (° C.) (Peak Temperature) [6, 9]: 81.2 °C
XRPD (solid form) [6, 9]: Form HI
% Wt Loss by TGA (25-120° C.) [6, 10]: 5.05%
DSC (° C.) (Peak Temperature) [6, 10]: 82.4 °C
XRPD (solid form) [6, 10]: Form HI
Physical stability ([6]; 10-85% RH, 10 days, 25° C.): stable
% Wt Loss by TGA (25-120° C.) [6, 11]: 5.38%
DSC (° C.) (Peak Temperature) [6, 11]: 80.7 °C
XRPD (solid form) [6, 11]: Form HI
% Wt Loss by TGA (25-120° C.) [6, 12]: 5.30%
DSC (° C.) (Peak Temperature) [6, 12]: 79.8 °C
XRPD (solid form) [6, 12]: Form HI
% Wt Loss by TGA (25-120° C.) [6, 13]: 5.35%
DSC (° C.) (Peak Temperature) [6, 13]: 79.9 °C
XRPD (solid form) [6, 13]: Form HI
Physical stability ([6]; 90% RH, 25° C.): change to Form HII
% Wt Loss by TGA (25-120° C.) [6, 14]: 6.04%
DSC (° C.) (Peak Temperature) [6, 14]: 80.0 °C
XRPD (solid form) ([6]; 90% RH, 4 days, 25° C., open vial, cell wraps over r12-r14: Form HI + Form HII (minor)): Form HI +
% Wt Loss by TGA (25-120° C.) ([6]; 90% RH, 10 days, 25° C., open vial): 9.4%
XRPD (solid form) ([6]; 90% RH, 10 days, 25° C., open vial, cell wraps over r15-r16: Form HI + Form HII): Form HI +
% Wt Loss by TGA (25-120° C.) ([6]; Ambient, 60 days, open vial): 4.77%
DSC (° C.) (Peak Temperature) ([6]; Ambient, 60 days, open vial): 79.8 °C
XRPD (solid form) ([6]; Ambient, 60 days, open vial): Form HI
Physical stability ([6]; ambient conditions, 60 days, open vial): stable
Physical stability ([6]; below 10% RH, 25° C.): de-hydrated
Structure (SMILES): COCC1(CN[C@@H]2C[C@H]2c2ccccc2)CCN(CC2(C(=O)O)CCC2)CC1 [Form HI, 1-{[4-(methoxymethyl)-4-({[(1R,2S)-2-phenylcyclopropyl]amino}methyl)piperidin-1-yl]methyl}cyclobutanecarboxylic acid bis(4-methylbenzenesulfonate)]
